Results from US20250228832A1, “METHODS FOR TREATING DISORDERS AMELIORATED BY MUSCARINIC RECEPTOR ACTIVATION” (KARUNA THERAPEUTICS, INC., priority 2022, published 2025).
pEC50: −log10 of the molar value. Read-outs that look alike come from different tables or passages of the source.

Target: T1, human M2 receptor (Homo sapiens, UniProt P08172)
T1 sequence (P08172 1-466): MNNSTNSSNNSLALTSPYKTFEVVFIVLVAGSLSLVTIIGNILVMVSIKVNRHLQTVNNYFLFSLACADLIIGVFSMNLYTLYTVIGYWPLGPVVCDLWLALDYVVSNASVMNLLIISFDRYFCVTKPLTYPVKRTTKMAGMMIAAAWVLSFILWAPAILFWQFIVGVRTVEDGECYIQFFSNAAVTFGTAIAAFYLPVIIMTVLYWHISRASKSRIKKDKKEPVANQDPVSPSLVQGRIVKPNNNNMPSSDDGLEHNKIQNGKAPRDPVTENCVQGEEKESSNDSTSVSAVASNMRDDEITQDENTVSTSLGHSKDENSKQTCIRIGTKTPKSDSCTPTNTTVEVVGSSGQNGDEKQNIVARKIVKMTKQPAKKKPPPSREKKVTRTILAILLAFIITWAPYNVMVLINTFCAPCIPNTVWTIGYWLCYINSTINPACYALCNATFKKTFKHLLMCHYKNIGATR
Assay: SPA GTP (GTPgS) binding curve shift assay, M2
Assay type: biochemical
Description: Membranes were prepared for GTPgS binding assays from CHO-K1 cells stably expressing human M2 or human M4 receptors. Cells were grown in 5-layer cell culture flasks. Cells were washed with 50 mL of PBS and then dissociated with 0.05% trypsin. Dissociated cells were then collected by centrifugation at 650×g for 8 min at 4° C. Pellets were rewashed in PBS by centrifugation and resuspended in 30 mL of 20 mM HEPES, 10 mM EDTA, pH 7.4. After sitting on ice for 30 min, membranes were collected by centrifugation at 50000×g for 15 min at 4° C., resuspended in 30 mL of 20 mM HEPES, 0.1 mM EDTA, pH 7.4, and collected again by centrifugation. Pellets were then washed twice by centrifugation in 30 mL of 20 mM HEPES, pH 7.4, and stored at −80° C. until the day of the assay. On the day of the assay, pellets were thawed on ice and resuspended in 1 mL of 20 mM HEPES, pH 7.4, 10 mM MgCl2, and 100 mM NaCl using Dounce homogenization.
According to Promega guidelines, membrane protein concentration was determined by BCA protein assay (Promega, Madison, WI).
On the day of the assay, serial dilutions of test PAM compounds were brought up in assay buffer (20 mM HEPES, 10 mM MgCl2; see Table 4 for NaCl concentrations) at four times the final assay concentration. […] of membrane homogenates (containing […] of membrane protein) were prepared in assay buffer supplemented with GDP at 4× final assay concentration (see Table 4 for GDP concentrations) and dispensed into 96 well polypropylene, U-bottom Greiner plates. Membrane plates were incubated for 10 min at room temperature with gentle shaking. Then, 25 μL of test compounds were added to assay plates. Plates were then incubated, with shaking, for an additional 10-15 min. Then, 25 μL of diluted agonists serially diluted in assay buffer at 4× final assay concentration was added to assay plates. Plates were then incubated, with shaking, for an additional 10-15 min. Next, […] of 0.4 nM ^35S-GTP (Perkin Elmer, Waltham, MA) in assay buffer was added to assay mixtures. The binding reaction was left on the shaker for 1 h at room temperature. Membranes in assay reactions were then transferred to GF/C filter plates (UniFilter, Perkin Elmer) and washed three times using FilterMate Harvester (Perkin Elmer) with cold assay buffer containing no GDP. Filter plates were then dried at 40° C. overnight, and […] of Beta Plate Scintillation liquid was added. Plates were top and bottom sealed before being read on the TopCount scintillation counter (Perkin Elmer, Waltham, MA).
Raw data for all assays was transmitted directly from plate readers into the Beacon database for processing. All assay plates contained positive and negative control wells for data normalization and scaling. […] All control wells contained DMSO at a final assay concentration that matched the test compound wells.
For GTPgS assays, the negative control wells were defined as 0% response. The highest response in a plate was scaled to 1, representing 100% response. Data from test compound wells was scaled to these controls and are reported as % control values. This was done to allow for subsequent GraphPad cooperativity analysis, setting the maximal response at no more than 1.

[1] = M2, Emraclidine concentration 0 nM
[2] = M2, Emraclidine concentration 41.2 nM, read-out: Emax
[3] = M2, Emraclidine concentration 123 nM, read-out: Emax
[4] = M2, Emraclidine concentration 370 nM
[5] = M2, Emraclidine concentration 1110 nM, read-out: Emax
[6] = M2, Emraclidine concentration 3330 nM, read-out: Emax
[7] = M2, Emraclidine concentration […]
[8] = M2, MK-4710 concentration 41.2 nM, read-out: Emax
[9] = M2, MK-4710 concentration 370 nM
[10] = M2, MK-4710 concentration 1110 nM, read-out: Emax
[11] = M2, MK-4710 concentration 3330 nM, read-out: Emax
[12] = M2, MK-4710 concentration 123 nM, read-out: Emax

Row | Emax [1] [%] | Emax [2] [%] | Emax [3] [%] | Emax at […] [4] [%] | Emax [5] [%] | Emax [6] [%] | Emax at […] [7] [%] | τ (agonist pharmacology) (M2, M4 PAM Emraclidine) | τ (agonist pharmacology) (M2, M4 PAM MK-4710) | Emax (M2, MK-4710 concentration 0 nM) [%] | Emax [8] [%] | Emax at […] [9] [%] | Emax [10] [%] | Emax [11] [%] | Emax at […] (M2, MK-4710 concentration […]) [%] | pEC50 [1] | α (cooperativity, affinity shift) (M2, M4 PAM Emraclidine) | β (cooperativity, efficacy shift) (M2, M4 PAM Emraclidine) | α (cooperativity, affinity shift) (M2, M4 PAM MK-4710) | β (cooperativity, efficacy shift) (M2, M4 PAM MK-4710) | SMILES | further results
1 | 35.6 | 57.9 | 51.1 | 52.6 | 65.9 | 79.2 | 44.8 | 0.1 | 0.1 | 45.1 | 53.2 | 59.1 | 70.6 | 78.7 | 60.6 | 7.73 | 1.0 | 18.1 | 1.0 | 5.0 | CCCCCOc1nsnc1C1=CCCCN1C [KTX-517, 3-(1-methyl-1,4,5,6-tetrahydropyridin-2-yl)-4-(pentyloxy)-1,2,5-thiadiazole] | pEC50 (M2, MK-4710 concentration 0 nM): 7.84; pEC50 (M2, MK-4710 concentration 41.2 nM): 7.92; pEC50 (M2, MK-4710 concentration 123 nM): 7.83; Emax [12]: 55.6%; pEC50 [9]: 7.88; pEC50 (M2, MK-4710 concentration 1110 nM): 7.80; pEC50 (M2, MK-4710 concentration 3330 nM): 7.99; pEC50 (M2, MK-4710 concentration […]): 7.59
2 | 39.8 | 52.6 | 52.2 | 50.1 | 67.5 | 75.1 | 48.7 | 1.6 | 0.0 | 38.7 | 50.1 | 61.4 | 62.2 | 77.6 | 57 | 7.45 | 1.0 | 1370.0 | 1.0 | 10.3 | CCCCCCCOc1nsnc1C1=CCCCN1C [KTX-593, 3-(heptyloxy)-4-(1-methyl-1,4,5,6-tetrahydropyridin-2-yl)-1,2,5-thiadiazole] | pEC50 (M2, MK-4710 concentration 0 nM): 7.71; Emax [12]: 50.2%
3 | 34.0 | 57 | 51.8 | 48.6 | 51.4 | 69.6 | 43.8 | 0.0 | 0.0 | 39.6 | 38.2 | 39.3 | 49.5 | 68.2 | 42.1 | 5.68 | 1.0 | 21.1 | 1.0 | 53.4 | CC1OC2(CS1)CN1CCC2CC1 (stereo not shown) [cevimeline, Cevimeline, reference compound] | pEC50 (M2, MK-4710 concentration 0 nM): 5.65; Emax [12]: 39%

Row | SMILES | Emax [1] [%] | Emax [2] [%] | Emax [3] [%] | Emax at […] [4] [%] | Emax [5] [%] | Emax [6] [%] | Emax at […] [7] [%] | τ (agonist pharmacology) (M2, M4 PAM Emraclidine) | τ (agonist pharmacology) (M2, M4 PAM MK-4710) | Emax (M2, MK-4710 concentration 0 nM) [%] | Emax [8] [%] | Emax at […] [9] [%] | Emax [10] [%] | Emax [11] [%] | Emax at […] (M2, MK-4710 concentration […]) [%] | pEC50 [1] | α (cooperativity, affinity shift) (M2, M4 PAM Emraclidine) | β (cooperativity, efficacy shift) (M2, M4 PAM Emraclidine) | α (cooperativity, affinity shift) (M2, M4 PAM MK-4710) | β (cooperativity, efficacy shift) (M2, M4 PAM MK-4710) | further results
4 | CCCCCCOc1nsnc1C1=CCCN(C)C1 [xanomeline, reference compound] | 36.2 | 48.2 | 49.8 | 41.5 | 59.6 | 64.1 | 41.7 | 0.0 | 0.0 | 55.6 | 65.3 | 55.5 | 74.1 | 75.7 | 60.1 |  |  |  |  |  | Emax: 74.7%
